Experimental data reported in patent US20240400564A1 (Syndax Pharmaceuticals, Inc, priority 2021, published 2024).

How the values were obtained:
[1] = molecular target: T1, human Menin and N-terminal portion of human MLL (amino acids 4-43) (Homo sapiens, UniProt O00255); assay: Menin-MLL competition assay (HTRF); format: binding; settings: 1 hr incubation
T1 construct: H-FL-Menin diluted to 4 nM in assay buffer
T1 sequence (O00255 1-610): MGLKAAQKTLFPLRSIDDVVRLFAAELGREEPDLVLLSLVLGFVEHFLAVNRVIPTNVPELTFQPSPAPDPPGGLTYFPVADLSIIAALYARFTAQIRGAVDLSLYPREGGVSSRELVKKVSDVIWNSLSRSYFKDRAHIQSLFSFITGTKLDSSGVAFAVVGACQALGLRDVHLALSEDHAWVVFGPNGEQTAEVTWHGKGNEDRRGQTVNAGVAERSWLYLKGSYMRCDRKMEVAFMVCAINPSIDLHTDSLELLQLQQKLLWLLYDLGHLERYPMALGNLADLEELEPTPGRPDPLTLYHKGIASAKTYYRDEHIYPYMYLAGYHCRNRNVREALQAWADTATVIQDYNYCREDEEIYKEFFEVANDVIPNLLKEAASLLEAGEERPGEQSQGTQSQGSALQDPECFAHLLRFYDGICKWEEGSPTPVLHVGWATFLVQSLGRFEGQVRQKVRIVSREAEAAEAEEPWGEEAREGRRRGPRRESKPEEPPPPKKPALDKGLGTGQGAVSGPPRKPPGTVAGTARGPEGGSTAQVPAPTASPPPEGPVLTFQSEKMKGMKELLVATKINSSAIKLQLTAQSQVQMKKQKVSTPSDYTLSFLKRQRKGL
Text: Menin-MLL is a competition assay between human Menin and N-terminal portion of human MLL representing amino acids 4-43 of the protein. The interaction between Menin and MLL peptide was monitored by HTRF employing Terbium labeled anti-His6 antibody directed to the N-terminal His6-tag on recombinant Menin and FITC group covalently attached to the MLL peptide. The N-terminal fragment of MLL, retained in all MLL fusion proteins, is involved in the interactions with Menin, and this protein-protein interaction is critical for the MLL fusion proteins mediated leukemogenic transformations.
For IC50 determination test compounds were prepared as 10 mM DMSO stock solutions. Considering DMSO as the vehicle in the assay system. Lower sub-stocks of 50 μM were prepared from the 10 mM stock solution. To test the compounds in assay, 3.16-fold serial dilutions are made in 100% DMSO. Mid-stock of 50×compounds (50 μM) were serially diluted (3.16 fold) in 100% DMSO in Polypropylene plate. In assay plate 1 micro-litre of the previously prepared compound dilution was stamped. H-FL-Menin diluted to 4 nM in assay buffer (50 mM Tris-HCl, pH 7.4, 50 mM NaCl, freshly prepared 1 mM DTT, 0.01% BSA, 0.005% Triton X-100) was pre-incubated with 8 nM anti-His6-Tb for 30 min at room temperature. FITC-MLL-4-43 was diluted to 2 nM in assay buffer and 25 μL was dispensed into each well of the assay plate followed by addition of 25 μl of pre-incubated H-FL-Menin and anti-His6-Tb mixture. Final concentration H-FL-Menin diluted to 1 nM in assay plate with 2 nM anti-His6-Tb and 1 nM FITC-MLL-4-43. After 1 hr incubation at room temperature, the HTRF signal was measured on the Spark multi-label plate reader. Resulting data were captured as a ratio of RFU520/RFU485×1000. The max values were obtained from 0% inhibition in presence of 2% DMSO and the min. values were 100% inhibition in presence of 1 μM reference compound.

hERG = hERG (Homo sapiens, UniProt Q12809); assay: Patch clamp assay (hERG tail currents, whole-cell)
Chain of hERG (Q12809 whole entry): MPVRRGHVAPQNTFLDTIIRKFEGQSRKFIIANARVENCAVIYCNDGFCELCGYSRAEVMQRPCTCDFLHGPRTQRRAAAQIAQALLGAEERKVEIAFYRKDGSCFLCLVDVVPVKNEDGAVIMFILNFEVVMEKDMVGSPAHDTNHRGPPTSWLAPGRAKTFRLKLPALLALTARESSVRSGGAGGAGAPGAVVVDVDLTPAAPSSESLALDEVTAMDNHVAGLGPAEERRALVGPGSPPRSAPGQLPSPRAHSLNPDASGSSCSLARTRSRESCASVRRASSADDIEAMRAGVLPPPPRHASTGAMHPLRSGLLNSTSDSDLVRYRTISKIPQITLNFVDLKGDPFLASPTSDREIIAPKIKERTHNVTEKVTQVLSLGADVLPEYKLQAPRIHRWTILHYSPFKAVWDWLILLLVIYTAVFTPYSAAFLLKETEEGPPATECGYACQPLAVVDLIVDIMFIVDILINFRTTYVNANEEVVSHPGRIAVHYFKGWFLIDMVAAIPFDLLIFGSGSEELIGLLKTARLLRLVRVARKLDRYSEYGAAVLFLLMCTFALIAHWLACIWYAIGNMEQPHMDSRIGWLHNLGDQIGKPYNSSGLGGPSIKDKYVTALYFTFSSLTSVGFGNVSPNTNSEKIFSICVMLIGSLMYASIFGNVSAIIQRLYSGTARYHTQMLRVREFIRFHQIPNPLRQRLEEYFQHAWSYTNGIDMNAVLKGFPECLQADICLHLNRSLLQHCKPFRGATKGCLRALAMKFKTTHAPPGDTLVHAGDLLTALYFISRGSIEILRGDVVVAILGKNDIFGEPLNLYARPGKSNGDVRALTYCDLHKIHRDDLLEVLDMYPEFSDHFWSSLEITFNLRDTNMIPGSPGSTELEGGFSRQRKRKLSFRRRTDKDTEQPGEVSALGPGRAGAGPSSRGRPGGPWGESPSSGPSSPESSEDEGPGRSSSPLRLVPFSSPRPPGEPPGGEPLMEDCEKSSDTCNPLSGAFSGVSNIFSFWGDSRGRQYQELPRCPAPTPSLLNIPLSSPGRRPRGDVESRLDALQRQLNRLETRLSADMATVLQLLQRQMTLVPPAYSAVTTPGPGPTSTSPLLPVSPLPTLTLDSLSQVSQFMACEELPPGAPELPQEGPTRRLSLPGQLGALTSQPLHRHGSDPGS

| Compound | IC50 [1] [nM] | hERG % Remaining (hERG; 10 μM compound) | hERG % Remaining (hERG; 30 μM compound) | hERG % Remaining (hERG; 1 μM compound) | hERG % Remaining (hERG; 3 μM compound) | hERG % Remaining (hERG; 100 μM compound) |
| --- | --- | --- | --- | --- | --- | --- |
| CCN(C(=O)c1cc(F)ccc1Oc1cncnc1N1CC2(CCN(C[C@@H]3CC[C@@H](NS(C)(=O)=O)CO3)CC2)C1)C(C)C [Example 1, N-Ethyl-5-fluoro-N-isopropyl-2-((4-(7-(((2S,5R)-5-(methylsulfonamido)tetrahydro-2H-pyran-2-yl)methyl)-2,7-diazaspiro[3.5]nonan-2-yl)pyrimidin-5-yl)oxy)benzamide] | < 100 | +++ (≥66%) | ++ (233% and ≤66%) |  |  |  |
| CCN(C(=O)c1cc(F)ccc1Oc1cncnc1N1CC2(CCN(C[C@@H]3CC[C@@H](NS(=O)(=O)CC)CO3)CC2)C1)C(C)C [Example 2, N-Ethyl-2-((4-(7-(((2S,5R)-5-(ethylsulfonamido)tetrahydro-2H-pyran-2-yl)methyl)-2,7-diazaspiro[3.5]nonan-2-yl)pyrimidin-5-yl)oxy)-5-fluoro-N-isopropylbenzamide] | < 100 | +++ (≥66%) | +++ (≥66%) |  |  |  |
| CCN(C(=O)c1cc(F)ccc1Oc1cncnc1N1CC2(CCN(C[C@@H]3CC[C@@H](NS(=O)(=O)C4CC4)CO3)CC2)C1)C(C)C [Example 4, 2-((4-(7-(((2S,5R)-5-(Cyclopropanesulfonamido)tetrahydro-2H-pyran-2-yl)methyl)-2,7-diazaspiro[3.5]nonan-2-yl)pyrimidin-5-yl)oxy)-N-ethyl-5-fluoro-N-isopropylbenzamide] | < 100 | +++ (≥66%) | +++ (≥66%) |  |  |  |
| CCN(C(=O)c1cc(F)ccc1Oc1cncnc1N1CC2(CCN(C[C@@H]3CC[C@@H](NS(=O)(=O)C4CCC4)CO3)CC2)C1)C(C)C [Example 6, 2-((4-(7-(((2S,5R)-5-(Cyclobutanesulfonamido)tetrahydro-2H-pyran-2-yl)methyl)-2,7-diazaspiro[3.5]nonan-2-yl)pyrimidin-5-yl)oxy)-N-ethyl-5-fluoro-N-isopropylbenzamide] | < 100 | +++ (≥66%) | ++ (233% and ≤66%) |  |  |  |
| CC(C)N(C(=O)c1cc(F)ccc1Oc1cncnc1N1CC2(CCN(C[C@@H]3CC[C@@H](NS(C)(=O)=O)CO3)CC2)C1)C(C)C [Example 12, 5-Fluoro-N,N-diisopropyl-2-((4-(7-(((2S,5R)-5-(methylsulfonamido)tetrahydro-2H-pyran-2-yl)methyl)-2,7-diazaspiro[3.5]nonan-2-yl)pyrimidin-5-yl)oxy)benzamide] | < 100 | +++ (≥66%) | +++ (≥66%) | +++ (≥66%) | +++ (≥66%) | ++ (233% and ≤66%) |
| CCS(=O)(=O)N[C@@H]1CC[C@@H](CN2CCC3(CC2)CN(c2ncncc2Oc2ccc(F)cc2C(=O)N(C(C)C)C(C)C)C3)OC1 [Example 13, 2-((4-(7-(((2S,5R)-5-(Ethylsulfonamido)tetrahydro-2H-pyran-2-yl)methyl)-2,7-diazaspiro[3.5]nonan-2-yl)pyrimidin-5-yl)oxy)-5-fluoro-N,N-diisopropylbenzamide] | < 100 | +++ (≥66%) | ++ (233% and ≤66%) | +++ (≥66%) | +++ (≥66%) | ++ (233% and ≤66%) |
| C[C@@H]1COC[C@@H](C)N1C(=O)c1cc(F)ccc1Oc1cncnc1N1CC2(CCN(C[C@@H]3CC[C@@H](NS(=O)(=O)C4COC4)CO3)CC2)C1 [Example 32, N-((3R,6S)-6-((2-(5-(2-((3R,5R)-3,5-Dimethylmorpholine-4-carbonyl)-4-fluorophenoxy)pyrimidin-4-yl)-2,7-diazaspiro[3.5]nonan-7-yl)methyl)tetrahydro-2H-pyran-3-yl)oxetane-3-sulfonamide] | < 100 |  |  |  |  |  |
| CCS(=O)(=O)N[C@@H]1CC[C@@H](CN2CCC3(CC2)CN(c2ncncc2Oc2ccc(F)cc2C(=O)N(CCOC)C(C)C)C3)OC1 [Example 35, 2-((4-(7-(((2S,5R)-5-(Ethylsulfonamido)tetrahydro-2H-pyran-2-yl)methyl)-2,7-diazaspiro[3.5]nonan-2-yl)pyrimidin-5-yl)oxy)-5-fluoro-N-isopropyl-N-(2-methoxyethyl)benzamide] | < 100 |  |  |  |  |  |
| CCS(=O)(=O)N[C@@H]1CC[C@@H](CN2CCC3(CC2)CN(c2ncncc2Oc2ccc(F)cc2C(=O)N2[C@H](C)CCC[C@@H]2C)C3)OC1 [Example 36, N-((3R,6S)-6-((2-(5-(2-((2S,6R)-2,6-Dimethylpiperidine-1-carbonyl)-4-fluorophenoxy)pyrimidin-4-yl)-2,7-diazaspiro[3.5]nonan-7-yl)methyl)tetrahydro-2H-pyran-3-yl)ethanesulfonamide] | < 100 |  |  |  |  |  |
| CCNC(=O)N[C@@H]1CC[C@@H](CN2CCC3(CC2)CN(c2ncncc2Oc2ccc(F)cc2C(=O)N(CC)C(C)C)C3)OC1 [Example 39, N-Ethyl-2-((4-(7-(((2S,5R)-5-(3-ethylureido)tetrahydro-2H-pyran-2-yl)methyl)-2,7-diazaspiro[3.5]nonan-2-yl)pyrimidin-5-yl)oxy)-5-fluoro-N-isopropylbenzamide] | < 100 |  |  |  |  |  |
| C[C@H]1COCCN1C(=O)c1cc(F)ccc1Oc1cncnc1N1CC2(CCN(C[C@@H]3CC[C@@H](NS(=O)(=O)C4CC4)CO3)CC2)C1 [Example 40, N-((3R,6S)-6-((2-(5-(4-Fluoro-2-((S)-3-methylmorpholine-4-carbonyl)phenoxy)pyrimidin-4-yl)-2,7-diazaspiro[3.5]nonan-7-yl)methyl)tetrahydro-2H-pyran-3-yl)cyclopropanesulfonamide] | < 100 |  |  |  |  |  |
| CCN(C(=O)c1cc(F)ccc1Oc1cncnc1N1CC2(CCN(C[C@@H]3CC[C@@H](NC(=O)NCC4CC4)CO3)CC2)C1)C(C)C [Example 42, 2-((4-(7-(((2S,5R)-5-(3-(Cyclopropylmethyl)ureido)tetrahydro-2H-pyran-2-yl)methyl)-2,7-diazaspiro[3.5]nonan-2-yl)pyrimidin-5-yl)oxy)-N-ethyl-5-fluoro-N-isopropylbenzamide] | < 100 |  |  |  |  |  |
| CCS(=O)(=O)N[C@@H]1CC[C@@H](CN2CCC3(CC2)CN(c2ncncc2Oc2ccc(F)cc2C(=O)N(C(C)C)[C@@H]2CCOC2)C3)OC1 [Example 46, 2-((4-(7-(((2S,5R)-5-(Ethylsulfonamido)tetrahydro-2H-pyran-2-yl)methyl)-2,7-diazaspiro[3.5]nonan-2-yl)pyrimidin-5-yl)oxy)-5-fluoro-N-isopropyl-N-((R)-tetrahydrofuran-3-yl)benzamide] | < 100 |  |  |  |  |  |
| CCS(=O)(=O)N[C@@H]1CC[C@@H](CN2CCC3(CC2)CN(c2ncncc2Oc2ccc(F)cc2C(=O)N(C(C)C)C2COC2)C3)OC1 [Example 48, 2-((4-(7-(((2S,5R)-5-(Ethylsulfonamido)tetrahydro-2H-pyran-2-yl)methyl)-2,7-diazaspiro[3.5]nonan-2-yl)pyrimidin-5-yl)oxy)-5-fluoro-N-isopropyl-N-(oxetan-3-yl)benzamide] | < 100 |  |  |  |  |  |
| COCCN(C(=O)c1cc(F)ccc1Oc1cncnc1N1CC2(CCN(C[C@@H]3CC[C@@H](NS(=O)(=O)C4CC4)CO3)CC2)C1)C(C)C [Example 51, 2-((4-(7-(((2S,5R)-5-(Cyclopropanesulfonamido)tetrahydro-2H-pyran-2-yl)methyl)-2,7-diazaspiro[3.5]nonan-2-yl)pyrimidin-5-yl)oxy)-5-fluoro-N-isopropyl-N-(2-methoxyethyl)benzamide] | < 100 |  |  |  |  |  |
